From patent publication US20100285597A1, “DETECTION OF FRAGMENTS OF NECTIN-1 FOR THE DIAGNOSIS OF ALZHEIMER'S DISEASE” (UNIVERSITY OF ROCHESTER, priority 2007, published 2010)

Test system: γ-secretase
Assay: Western blot of nectin-1 C-terminal fragments in hippocampal neurons overexpressing flag tagged nectin-1, treated with γ-secretase inhibitor
Type: cell-based, rat
Details: 0.5 and 1 μM inhibitor, 24 hrs, transduced hippocampal neurons at 21 DIV
Protocol: Hippocampal neurons were plated at a density of 1.3×10^5 cells. The neurons at 21 DIV were transduced with an adenovirus vector expressing a C-terminal flag tagged nectin-1 for 24 hrs at a MOI of 50. Neurons were treated without (FIG. 3, lanes 1 and 2) or with 0.5 μM (FIG. 3, lanes 3 and 4) and 1 μM γ-secretase inhibitor X (FIG. 3, lanes 5 and 6) for 24 hrs. These cells were harvested in reducing sample buffer and analyzed on a 10% SDS-PAGE gel.
Technical difficulties preclude detection of endogenous C-terminal fragments, particularly the 35 and 24 kDa forms due to low expression levels in neurons. To circumvent this, C-terminal Flag tagged nectin-1 was over expressed in neurons as described above.

CC(C)C[C@H](NC(=O)[C@H](Cc1ccccc1)C[C@@H](O)[C@H](Cc1ccccc1)NC(=O)OC(C)(C)C)C(=O)N[C@@H](Cc1ccccc1)C(N)=O [γ-secretase inhibitor X]
density of the 24 kDa nectin-1 band: reduced
density of the 37, 34 and 30 kDa nectin-1 bands: increased
